These results are taken from US10575528B2, “Plant disease control composition and plant disease control method” (SUMITOMO CHEMICAL COMPANY, LIMITED, priority 2015, dated 2020).

For assay [1], the system named is damping-off fungus (Rhizoctonia solani). As to the kind of experiment: Test Example 16: soybean seed smearing treatment, damping-off pot test (Table 5). Type of assay: in vivo. The following applies: soybean seeds, 20 days after. The method, then: (§1) If the effect by the combination of two active ingredients is greater than that of the estimated value E, which is calculated by the Colby's equation as follows, the effect is regarded as synergistic. E=X+Y−X·Y/100 wherein, E=Control value when using the mixture of the active ingredients A and B at the concentrations m and n (amount of the active ingredient), respectively.
(§2) X=Control value when using the active ingredient A at the concentration m (amount of the active ingredient).
(§3) Y=Control value when using the active ingredient B at the concentration n (amount of the active ingredient).
In a rotary seed treatment machine (trade name: HEGE11, manufactured by WINTERSTEIGER), soybean seeds (variety:“Hatayutaka”) were treated by smearing treatment using azoxystrobin flowable formulation (25% flowable formulation, trade name: Amistar, Syngenta), trifloxystrobin flowable formulation (25% flowable formulation, trade name: FLINT, Bayer CropScience), a chemical liquid prepared by diluting picoxystrobin in acetone/Tween 20 (weight ratio=95:5) and diluting with water, a chemical liquid prepared by dissolving mandestrobin in acetone/Tween 20 (weight ratio=95:5) and diluting with water, and the flowable formulation obtained of the present bacterial strain in Formulation Example 16, so that the soybean seeds retain the bacteria and the compound in the amount shown in Table 5.
Cultivation was carried out in a greenhouse under irrigation. Also, similar procedures were conducted using untreated soybean seeds, instead of the treated soybean seeds, as described above for the treated compartment (“untreated compartment”). The plants were investigated 20 days after for the number of diseased plants, and the disease incidence was calculated by the following “Equation 1”. The control value of the treated compartment was calculated by the following equation “Equation 2”, based on the disease incidences of the treated compartment and the untreated compartment. Disease incidence (%)=100×(number of diseased plant/total number of seeded seeds): Equation 1 Control value (%)=100×[(disease incidence in untreated compartment−disease incidence in treated compartment)/disease incidence in untreated compartment]: Equation 2

Assay [2] concerns damping-off fungus (Fusarium spp.). Briefly: Test Example 15: corn seed smearing treatment, damping-off pot test (Table 4). The class given is in vivo. To be noted: corn seeds, 20 days after. The method, then: In a rotary seed treatment machine (trade name: HEGE11, manufactured by WINTERSTEIGER), corn seeds (variety: yellow dent corn) were treated by smearing treatment using pyraclostrobin flowable formulation (20% wettable granules, trade name: Comet, BASF. Corporation), a chemical liquid prepared by dissolving fluoxastrobin in acetone/Tween 20 (weight ratio=95:5) and diluting with water, and the flowable formulation of the present bacterial strain obtained in Formulation Example 16, respectively, so that the corn seeds retain the present bacterial strain and the compound in the amount shown in Table 4.
Cultivation was carried out in a greenhouse under irrigation. Also, similar procedures were conducted using untreated corn seeds, instead of the treated corn seeds, as described above for the treated compartment (“untreated compartment”). The plants were investigated 20 days after for the number of diseased plants, and the disease incidence was calculated by the following “Equation 1”. The control value of the treated compartment was calculated by the following equation “Equation 2”, based on the disease incidences of the treated compartment and the untreated compartment. Disease incidence (%)=100×(number of diseased plant/total number of seeded seeds): Equation 1 Control value (%)=100×[(disease incidence in […] in treated compartment)/disease incidence in untreated compartment]: Equation 2
as §1, §2, §3

For the molecule `CO/C=C(/C(=O)OC)c1ccccc1Oc1cc(Oc2ccccc2C#N)ncn1` [Azoxystrobin], the “Controlling Effect (control value)” value in assay [1] (0.005 g/Kg seeds) was 15.9%; in assay [1] (0.01 g/Kg seeds), 29.5%; in assay [1] (0.02 g/Kg seeds), 38.6%.

Turning to `CO/N=C(/C1=NOCCO1)c1ccccc1Oc1ncnc(Oc2ccccc2Cl)c1F` [Fluoxastrobin], the “Controlling Effect (control value)” value in assay [2] (0.05 g/Kg seeds) is 14.0%; in assay [2] (0.1 g/Kg seeds) it was 30.2%; in assay [2] (0.2 g/Kg seeds) it was 41.9%.

For the molecule `CNC(=O)C(OC)c1ccccc1COc1cc(C)ccc1C` (stereo not drawn) [Mandestrobin], the “Controlling Effect (control value)” value is listed as 25.0% in assay [1] (0.025 g/Kg seeds), 36.4% in assay [1] (0.05 g/Kg seeds) and 47.7% in assay [1] (0.1 g/Kg seeds).

On to `CO/C=C(/C(=O)OC)c1ccccc1COc1cccc(C(F)(F)F)n1` [Picoxystrobin], for which the “Controlling Effect (control value)” value in assay [1] (0.002 g/Kg seeds) was found to be 18.2%; in assay [1] (0.01 g/Kg seeds), 27.3%; in assay [1] (0.05 g/Kg seeds), 38.6%.

As to `COC(=O)N(OC)c1ccccc1COc1ccn(-c2ccc(Cl)cc2)n1` [Pyraclostrobin], the “Controlling Effect (control value)” value in assay [2] (0.025 g/Kg seeds) was 18.6%; in assay [2] (0.05 g/Kg seeds) it was 25.6%; in assay [2] (0.1 g/Kg seeds), 37.2%.

As for `CON=C(C(=O)OC)c1ccccc1CON=C(C)c1cccc(C(F)(F)F)c1` [Trifloxystrobin], the “Controlling Effect (control value)” value in assay [1] (0.002 g/Kg seeds) stood at 20.5%; in assay [1] (0.01 g/Kg seeds), 31.8%; in assay [1] (0.05 g/Kg seeds), 40.9%.
